Measured values: patent US20250122239A1 (K BENHAVNS UNIVERSITET, published 2025)
Ends that are not written are not given here.

Assays:
lean mice = experiment: food intake in chow fed lean mice, shortened GLP-1-NT combination peptides (Example 9); format: in vivo; conditions: 100 nmol/kg, single SC injection, chow fed lean mice fasted overnight
Experimental: Chow fed lean mice fasted overnight were injected once SC in the beginning of the light cycle and food returned. Food intake measured continuously after injection in an indirect calorimetry system. Food intake was analysed using repeated measures two-way ANOVA followed by a Tukey's post hoc test.

[1] = target: human neurotensin receptor NTSR1 (pCMVhNTSR 1, transiently expressed in HEK293 cells) (human, UniProt P30989 1-418); experiment: cell-based or functional assay
Chain of human neurotensin receptor NTSR1 (pCMVhNTSR 1, transiently expressed in HEK293 cells) (P30989 whole entry): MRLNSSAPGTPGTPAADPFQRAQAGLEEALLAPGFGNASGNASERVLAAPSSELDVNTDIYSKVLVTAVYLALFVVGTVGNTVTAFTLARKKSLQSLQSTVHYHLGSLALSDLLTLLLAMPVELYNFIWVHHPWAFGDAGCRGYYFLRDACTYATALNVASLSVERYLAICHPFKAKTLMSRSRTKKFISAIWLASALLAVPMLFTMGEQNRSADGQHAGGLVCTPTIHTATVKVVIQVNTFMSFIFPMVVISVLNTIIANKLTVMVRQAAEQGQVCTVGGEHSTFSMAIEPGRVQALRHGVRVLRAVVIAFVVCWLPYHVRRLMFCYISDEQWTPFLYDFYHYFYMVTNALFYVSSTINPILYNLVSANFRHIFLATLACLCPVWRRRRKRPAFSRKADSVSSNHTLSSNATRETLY

Row | Molecule | food intake in comparison to saline (lean mice) | inositol phosphate (IP) accumulation, LogEC50 [1]
1 | HAEFTFTSDVSSYLEGQKKGGELYENKPRRPYIL-acid (HAEFTFTSDVSSYLEGQKKGGELYENKPRRPYIL-OH) [Peptide 10] | p<0.001 peptide 10 vs. saline | 
2 | HAEGTFTSDVSSYLEGQELYENKPRRPYIL-acid (HAEGTFTSDVSSYLEGQELYENKPRRPYIL-OH) [Peptide 9] | p<0.05 peptide 9 vs. saline | 
3 | HAEGTFTSDVSSYLEGQAAKEFIAWLVKGRLYENKPRRPYIL [GLP-1/NT fusion peptide (SEQ ID NO: 45)] |  | -8.5
